Test system: NCI-H211 complex spheroid viability
Test: Anticancer human tumor NCI-H211 cell line growth inhibition [LSD1];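 note: luminescent viability read after seven days of drug exposure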;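 for viability, T/C: 100% = DMSO vehicle control viability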
Details: for IC50: curve of first compound; for viability, T/C: stronger effect = lower value
Method in brief: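 Drug combinations with the LSD1 inhibitor iadademstat tested on tumor cells co-cultured as spheroids with endothelial cells and mesenchymal stem cells. Concentrations descended in half-log increments from clinical Cmax or 10 microM.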

[1] = second compound 0.1 µM, first compound 0.0316 µM
[2] = second compound 0.1 µM, first compound 0.1 µM
[3] = second compound 0.1 µM, first compound 0.316 µM
[4] = second compound 0.1 µM, first compound 1 µM
[5] = second compound 0.1 µM, first compound 3.16 µM
[6] = second compound 0.1 µM, first compound 10 µM
[7] = second compound 0.316 µM, first compound 0.0316 µM
[8] = second compound 0.316 µM, first compound 0.1 µM
[9] = second compound 0.316 µM, first compound 0.316 µM
[10] = second compound 0.316 µM, first compound 1 µM
[11] = second compound 0.316 µM, first compound 3.16 µM
[12] = second compound 0.316 µM, first compound 10 µM
[13] = second compound 1 µM, first compound 0.0316 µM
[14] = second compound 1 µM, first compound 0.1 µM
[15] = second compound 1 µM, first compound 0.316 µM
[16] = second compound 1 µM, first compound 1 µM
[17] = second compound 1 µM, first compound 3.16 µM
[18] = second compound 1 µM, first compound 10 µM
[19] = second compound 3.16 µM, first compound 0.0316 µM
[20] = second compound 3.16 µM, first compound 0.1 µM
[21] = second compound 3.16 µM, first compound 0.316 µM
[22] = second compound 3.16 µM, first compound 1 µM
[23] = second compound 3.16 µM, first compound 3.16 µM
[24] = second compound 3.16 µM, first compound 10 µM
[25] = second compound 10 µM, first compound 0.0316 µM
[26] = second compound 10 µM, first compound 0.1 µM
[27] = second compound 10 µM, first compound 0.316 µM
[28] = second compound 10 µM, first compound 1 µM
[29] = second compound 10 µM, first compound 3.16 µM
[30] = second compound 10 µM, first compound 10 µM
[31] = second compound 0.1 µM, first compound 0.00316 µM
[32] = second compound 0.1 µM, first compound 0.01 µM
[33] = second compound 0.316 µM, first compound 0.00316 µM
[34] = second compound 0.316 µM, first compound 0.01 µM
[35] = second compound 1 µM, first compound 0.00316 µM
[36] = second compound 1 µM, first compound 0.01 µM
[37] = second compound 3.16 µM, first compound 0.00316 µM
[38] = second compound 3.16 µM, first compound 0.01 µM
[39] = second compound 10 µM, first compound 0.00316 µM
[40] = second compound 10 µM, first compound 0.01 µM

SMILES | IC50 (second compound 0.1 µM) [nM] | IC50 (second compound 0.316 µM) [nM] | IC50 (second compound 1 µM) [nM] | IC50 (second compound 3.16 µM) [nM] | IC50 (second compound 10 µM) [nM] | viability, T/C [1] [%] | viability, T/C [2] [%] | viability, T/C [3] [%] | viability, T/C [4] [%] | viability, T/C [7] [%] | viability, T/C [8] [%] | viability, T/C [9] [%] | viability, T/C [10] [%] | viability, T/C [13] [%] | viability, T/C [14] [%] | viability, T/C [15] [%] | viability, T/C [16] [%] | viability, T/C [19] [%] | viability, T/C [20] [%] | viability, T/C [21] [%] | other results
CC(C)c1c(-c2ccccc2)nc2c(C#N)c[nH]n2c1=O + NC1CCC(NC2CC2c2ccccc2)CC1 | > 10000 | > 10000 | > 10000 | > 10000 | < 31.6 | 74.2 | 74.7 | 72 | 81.5 | 84.8 | 81.7 | 72.4 | 72.8 | 69.9 | 80.7 | 77.3 | 60.5 | 46.6 | 56 | 61.6 | viability, T/C [5]: 65.8%; viability, T/C [6]: 85.8%; viability, T/C [11]: 67.2%; viability, T/C [12]: 75.5%; viability, T/C [17]: 62.3%; viability, T/C [18]: 70%; viability, T/C [22]: 65.5%; viability, T/C [23]: 62%; viability, T/C [24]: 60.5%; viability, T/C [25]: 35.2%; viability, T/C [26]: 37.4%; viability, T/C [27]: 32.7%; viability, T/C [28]: 34.9%; viability, T/C [29]: 32.2%; viability, T/C [30]: 32.8%
CC1COCCN1c1cc(-c2ccnn2C)c2ccnc(-c3ccn[nH]3)c2n1 (stereo not given) + NC1CCC(NC2CC2c2ccccc2)CC1 | < 3.16 | 3.54 | 3.26 | < 3.16 | < 3.16 | 3.03 | 1.88 | 1.99 | 1.97 | 5.04 | 2.3 | 1.83 | 2.11 | 3.22 | 2.14 | 1.98 | 2.52 | 2.82 | 2.03 | 1.63 | viability, T/C [31]: 47%; viability, T/C [32]: 15.9%; viability, T/C [33]: 54.4%; viability, T/C [34]: 12.7%; viability, T/C [35]: 51.1%; viability, T/C [36]: 14.4%; viability, T/C [37]: 39.7%; viability, T/C [38]: 13.1%; viability, T/C [22]: 2.4%; viability, T/C [39]: 18.2%; viability, T/C [40]: 3.8%; viability, T/C [25]: 1.39%; viability, T/C [26]: 1%; viability, T/C [27]: 0.87%; viability, T/C [28]: 1.21%
COc1ccc([C@@H](O)c2cc(-c3ncnc4cc(N5CCOCC5)ccc34)c(F)cc2Cl)nn1 + NC1CCC(NC2CC2c2ccccc2)CC1 | 3700 | 3370 | 3480 | 3700 | < 31.6 | 72.7 | 63 | 69.5 | 74.2 | 66.9 | 69.7 | 73.2 | 71.2 | 69.2 | 63.6 | 65.3 | 81.7 | 73.6 | 63.3 | 64 | viability, T/C [5]: 55.8%; viability, T/C [6]: 13.7%; viability, T/C [11]: 52.1%; viability, T/C [12]: 12.6%; viability, T/C [17]: 53.4%; viability, T/C [18]: 11.3%; viability, T/C [22]: 81.5%; viability, T/C [23]: 56.1%; viability, T/C [24]: 11.1%; viability, T/C [25]: 36.9%; viability, T/C [26]: 36.7%; viability, T/C [27]: 36.8%; viability, T/C [28]: 54.3%; viability, T/C [29]: 49%; viability, T/C [30]: 8.03%
O=C(C=Cn1cnc(-c2cc(C(F)(F)F)cc(C(F)(F)F)c2)n1)NNc1cnccn1 + NC1CCC(NC2CC2c2ccccc2)CC1 | < 3.16 | < 3.16 | < 3.16 | < 3.16 | < 3.16 | 11.6 | 6.71 | 2.42 | 1.48 | 11.2 | 6.77 | 2.16 | 8.93 | 9.68 | 5.65 | 2.43 | 1.5 | 11 | 5.74 | 2.43 | viability, T/C [31]: 33.4%; viability, T/C [32]: 20.6%; viability, T/C [33]: 40.1%; viability, T/C [34]: 23.5%; viability, T/C [35]: 41.4%; viability, T/C [36]: 21.7%; viability, T/C [37]: 32.9%; viability, T/C [38]: 22.1%; viability, T/C [22]: 1.51%; viability, T/C [39]: 24.4%; viability, T/C [40]: 15.7%; viability, T/C [25]: 7.59%; viability, T/C [26]: 3.68%; viability, T/C [27]: 1.66%; viability, T/C [28]: 1.3%

Source: PubChem BioAssay AID1918940 (Molecular Pharmacology Branch, DTP, NCI, 2023)
